Measured values published in article PMC6522510 (Nature Communications, 2019).
Like-named read-outs stand apart in the source and are kept apart here.

Assays:
Design in all cases: species or system AML cell lines (8); Primary HTS, single concentration about 10 uM, Cell Titer Glo viability; log10 luminescence, per cent inhibition relative to cycloheximide control
Conditions in all cases: 72 h, relative to cycloheximide control, log10 luminescence, inhibitor
U937 = test system: U937
CMS = test system: CMS
MV4-11 = test system: MV4-11
CHRF288-11 = test system: CHRF288-11
CMK = test system: CMK
M07e = test system: M07e
ML-2 = test system: ML-2
MOLM-13 = test system: MOLM-13

SMILES	U937 %inh (U937)	CMS %inh (CMS)	MV4-11 %inh (MV4-11)	CHRF288-11 %inh (CHRF288-11)	CMK %inh (CMK)	M07e %inh (M07e)	ML-2 %inh (ML-2)	MOLM-13 %inh (MOLM-13)	U937 %inh (U937; U937 %inh, 10 µM)	CMS %inh (CMS; CMS %inh, 10 µM)	MV4-11 %inh (MV4-11; MV4-11 %inh, 10 µM)	CHRF288-11 %inh (CHRF288-11; CHRF288-11 %inh, 10 µM)	CMK %inh (CMK; CMK %inh, 10 µM)	M07e %inh (M07e; M07e %inh, 10 µM)	ML-2 %inh (ML-2; ML-2 %inh, 10 µM)	MOLM-13 %inh (MOLM-13; MOLM-13 %inh, 10 µM)
C[C@]12CCC(=O)C=C1CC[C@@H]1[C@@H]2[C@@H](O)C[C@@]2(C)[C@H]1CC[C@]2(O)C(=O)COP(=O)(O)O [SJ000286156-3, HYDROCORTISONE SODIUM PHOSPHATE]	5.176%	-1.283%	-4.752%	4.933%	0.9258%	0.6039%	0.191%	15.41%								
CCCCCCCCCCCCCCCCOP(=O)([O-])OCC[N+](C)(C)C [SJ000286181-3, MILTEFOSINE]	-1.059%	-1.205%	-0.6681%	1.656%	-1.001%	2.383%	-0.1071%	1.005%								
CN(C)C(=O)Oc1ccc[n+](C)c1 [SJ000286222-6, PYRIDOSTIGMINE BROMIDE]	1.718%	-3.618%	-1.282%	-1.775%	-7.252%	2.078%	1.797%	-2.128%								
CC(=O)O[C@]1(C(C)=O)CC[C@H]2[C@@H]3C=C(Cl)C4=CC(=O)[C@@H]5C[C@@H]5[C@]4(C)[C@H]3CC[C@@]21C [SJ000286483-6, CYPROTERONE ACETATE]	1.732%	2.38%	2.562%	-0.8844%	-1.818%	0.443%	-2.366%	-1.163%								
CCCCC1=NC2(CCCC2)C(=O)N1Cc1ccc(-c2ccccc2-c2nnn[nH]2)cc1 [SJ000286674-2, IRBESARTAN]	-0.5514%	-2.028%	1.017%	1.638%	0.3545%	0.4149%	1.25%	17.32%								
CC(C)=CCC/C(C)=C/CC/C(C)=C/CO [SJ000286702-2, FARNESOL]	-0.4236%	-1.627%	-0.08153%	-1.355%	-1.858%	1.694%	1.139%	-0.6204%								
C[C@H](CS)C(=O)N1CCC[C@H]1C(=O)O [SJ000286908-7, CAPTOPRIL]									2.172%	0.1894%	2.877%	0.04975%	-2.127%	3.365%	-0.2844%	2.932%
C[C@H](CS)C(=O)N1CCC[C@H]1C(=O)O [SJ000286908-8, CAPTOPRIL]									-1.359%	-1.291%	-2.616%	4.869%	0.6591%	-2.045%	-1.462%	0.1339%
C[C@H](CS)C(=O)N1CCC[C@H]1C(=O)O [SJ000286908-9, CAPTOPRIL]									-2.673%	0.9516%	1.577%	-5.11%	-4.021%	0.8569%	-0.6374%	-1.689%
C[C@H](CS)C(=O)N1CCC[C@H]1C(=O)O [SJ000286908-10, CAPTOPRIL]									51.26%	-3.33%	-0.07613%	-3.972%	3.343%	-1.533%	-0.772%	0.8092%
C[C@H](CS)C(=O)N1CCC[C@H]1C(=O)O [SJ000286908-11, CAPTOPRIL]									-18.23%	-1.329%	-2.697%	-3.474%	-6.202%	0.3888%	-1.011%	1.337%
